According to US9682938B2, “Pyrazolone derivatives as nitroxyl donors” (Cardioxyl Pharmaceuticals, Inc., priority 2014, dated 2017):

Columns and labels:
[1] = In vitro plasma stability, dog plasma; assay type: in vitro ADME; conditions: male, pH 7.4, 5 μM, 37° C., sampling 0-360 minutes, read-out: T1/2 Dog
Summary of the method: (§1)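 Pooled plasma at pH 7.4 with sodium heparin or citrate anticoagulant; compound at 5 μM, 37° C with shaking, triplicate samples at 0–360 min. Quenched in acetonitrile/1% formic acid with internal standard; LC-MS/MS peak-area ratios without standard curve; T1/2 from percent remaining.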

[2] = In vitro plasma stability, rat plasma; assay type: in vitro ADME; conditions: male, pH 7.4, 5 μM, 37° C., sampling 0-360 minutes, read-out: T1/2 Rat
Summary of the method: as §1

[3] = In vitro plasma stability, human plasma; assay type: in vitro ADME; conditions: male, pH 7.4, 5 μM, 37° C., sampling 0-360 minutes, read-out: T1/2 Human
Summary of the method: as §1

normal beagle dogs = test: Pharmacodynamic activity: systolic blood pressure decrease in telemetered dogs after oral dose; assay type: in vivo, dog; conditions: beagle dogs (n=3), single oral dose 30 mg/kg in PEG300, first 2 hr post-dose relative to baseline SBP
Procedure: The effect of certain compounds from Table 1 on blood pressure in freely moving telemetered normal beagle dogs (n=3) after single oral doses was evaluated. The animals were surgically implanted with a pressure transducer equipped telemetry transmitter. The transmitter assembly was secured internally and a fluid-filled catheter was placed into the abdominal aorta to allow for collection of cardiovascular data. To evaluate cardiovascular effects, 3 dogs were given single oral doses of a compound from Table 1 (100% PEG300 in gelatin capsules) at a concentration of 100 mg/mL and at doses of 30 mg/kg. Systemic blood pressure and heart rate were evaluated continuously for 2 hr before and for 24 hr after dosing (results not shown). To compare the pharmacodynamic activity for all tested compounds, the mean systolic blood pressure (SBP) decrease during the first 2 hr post-dose was determined relative to the baseline SBP (30-120 min pre-dose) (Table 6).

Row | SMILES | half-life at 5 μM [1] | half-life at 5 μM [2] | half-life at 5 μM [3] | Mean SBP decrease (normal beagle dogs)
1 | CC(C)S(=O)(=O)c1ccc(C2=NN(C)C(=O)C2(C)NO)cc1 (centres unmarked) [Compound 78, 4-(Hydroxyamino)-1,4-dimethyl-3-[4-(propane-2-sulfonyl)phenyl]-4,5-dihydro-1H-pyrazol-5-one] | 42 min | 75 min | 43 min | 27 mmHg
2 | CN1N=C(c2ccc(S(C)(=O)=O)c(F)c2)C(C)(NO)C1=O (centres unmarked) [Compound 40, 5-(3-fluoro-4-(methylsulfonyl)phenyl)-4-(hydroxyamino)-2,4-dimethyl-2,4-dihydro-3H-pyrazol-3-one] | 48 min | 39 min | 39 min | 15 mmHg
3 | CN1N=C(c2ccc(S(=O)(=O)N3CCOCC3)cc2)C(C)(NO)C1=O (centres unmarked) [Compound 80, 4-(Hydroxyamino)-1,4-dimethyl-3-[4-(morpholine-4-sulfonyl)phenyl]-4,5-dihydro-1H-pyrazol-5-one] | 49 min | 80 min | 46 min | 13 mmHg
4 | CN1N=C(c2cccc(S(C)(=O)=O)c2)C(C)(NO)C1=O (centres unmarked) [Compound 48, 4-(hydroxyamino)-2,4-dimethyl-5-(3-(methylsulfonyl)phenyl)-2,4-dihydro-3H-pyrazol-3-one] | 49 min | 53 min | 49 min | 17 mmHg
5 | CN1N=C(c2ccc(S(=O)(=O)N(C)C)cc2)C(C)(NO)C1=O (centres unmarked) [Compound 49, 4-(4-(hydroxyamino)-1,4-dimethyl-5-oxo-4,5-dihydro-1H-pyrazol-3-yl)-N,N-dimethylbenzenesulfonamide] | 39 min | 70 min | 52 min | 18 mmHg
6 | CCC1(NO)C(=O)N(C)N=C1c1ccccc1F (centres unmarked) [Compound 31, 4-ethyl-5-(2-fluorophenyl)-4-(hydroxyamino)-2-methyl-2,4-dihydro-3H-pyrazol-3-one] | 201 min | 66 min | 59 min | 
7 | CC1=NN(c2ccccc2)C(=O)C1(NO)c1ccccc1 (centres unmarked) [Compound 24, 4-(hydroxyamino)-5-methyl-2,4-diphenyl-2,4-dihydro-3H-pyrazol-3-one] | 16 min | 10 min | 11 min | 
8 | COc1ccc(C2(NO)C(=O)N(C)N=C2C)cc1 (centres unmarked) [Compound 43, 4-(hydroxyamino)-4-(4-methoxyphenyl)-1,3-dimethyl-1H-pyrazol-5(4H)-one] | 23 min | 25 min | 35 min | 
9 | CN1N=C(c2ccc(C(=O)N3CCOCC3)cc2)C(C)(NO)C1=O (centres unmarked) [Compound 81, 4-(Hydroxyamino)-1,4-dimethyl-3-[4-(morpholine-4-carbonyl)phenyl]-4,5-dihydro-1H-pyrazol-5-one] | 84 min | 148 min | 76 min | 
10 | COc1ccc(C2=NN(C)C(=O)C2(C)NO)cc1F (centres unmarked) [Compound 19, 5-(3-fluoro-4-methoxyphenyl)-4-(hydroxyamino)-2,4-dimethyl-2,4-dihydro-3H-pyrazol-3-one] | 95 min | 90 min | 163 min | 
11 | CN1N=C(c2cc(F)c(S(C)(=O)=O)c(F)c2)C(C)(NO)C1=O (centres unmarked) [Compound 45, 5-(3,5-difluoro-4-(methylsulfonyl)phenyl)-4-(hydroxyamino)-2,4-dimethyl-2,4-dihydro-3H-pyrazol-3-one] | 31 min | 25 min | 40 min | 
12 | COc1cc(C2=NN(C)C(=O)C2(C)NO)ccc1S(C)(=O)=O (centres unmarked) [Compound 77, 4-(Hydroxyamino)-3-(4-methanesulfonyl-3-methoxyphenyl)-1,4-dimethyl-4,5-dihydro-1H-pyrazol-5-one] | 37 min | 62 min | 40 min | 
13 | CO/N=C(\C)C1(NO)C(=O)N(C)N=C1C(C)(C)C (centres unmarked) [Compound 10, 5-(tert-butyl)-4-(hydroxyamino)-4-(1-(methoxyimino)ethyl)-2-methyl-2,4-dihydro-3H-pyrazol-3-one] | 40 min | 21 min | 12 min | 
14 | Cc1cc(C2=NN(C)C(=O)C2(C)NO)ccc1S(C)(=O)=O (centres unmarked) [Compound 41, 4-(hydroxyamino)-2,4-dimethyl-5-(3-methyl-4-(methylsulfonyl)phenyl)-2,4-dihydro-3H-pyrazol-3-one] | 38 min | 64 min | 54 min | 
15 | CO/N=C(\C)C1(NO)C(=O)N(C)N=C1c1ccc(S(C)(=O)=O)cc1 (centres unmarked) [Compound 42, 4-(hydroxyamino)-4-(1-(methoxyimino)ethyl)-2-methyl-5-(4-(methylsulfonyl)phenyl)-2,4-dihydro-3H-pyrazol-3-one] | 5 min | 9 min | 6 min | 
16 | CC1=NN(C)C(=O)C1(NO)c1ccc(Cl)cc1 (centres unmarked) [Compound 66, 4-(4-chlorophenyl)-4-(hydroxyamino)-1,3-dimethyl-1H-pyrazol-5(4H)-one] | 7 min | 7 min | 10 min | 
17 | CC1=NN(C)C(=O)C1(NO)c1ccc(S(C)(=O)=O)cc1 (centres unmarked) [Compound 37, 4-(hydroxyamino)-2,5-dimethyl-4-(4-(methylsulfonyl)phenyl)-2,4-dihydro-3H-pyrazol-3-one] | 3 min | 5 min | 8 min | 

The next lines start with results.

Row | half-life at 5 μM [1] | half-life at 5 μM [2] | half-life at 5 μM [3] | SMILES | Mean SBP decrease (normal beagle dogs)
18 | 75 min | 53 min | 30 min | CN1N=C(C(C)(C)C)C(NO)(c2ccccc2)C1=O (centres unmarked) [Compound 113, 3-tert-Butyl-4-(hydroxyamino)-1-methyl-4-phenyl-4,5-dihydro-1H-pyrazol-5-one] | 18 mmHg
19 | 100 min | 161 min | 89 min | CN(C)C(=O)c1ccc(C2=NN(C)C(=O)C2(C)NO)cc1 (centres unmarked) [Compound 84, 4-[4-(Hydroxyamino)-1,4-dimethyl-5-oxo-4,5-dihydro-1H-pyrazol-3-yl]-N,N-dimethylbenzamide] | 15 mmHg
20 | 21 min | 19 min | 10 min | CCO/N=C(\C)C1(NO)C(=O)N(C)N=C1C(C)(C)C (centres unmarked) [Compound 112, 3-tert-Butyl-4-[1-(ethoxyimino)ethyl]-4-(hydroxyamino)-1-methyl-4,5-dihydro-1H-pyrazol-5-one] | 21 mmHg
21 | 7 min | 24 min | 15 min | CO/N=C(\C)C1(NO)C(=O)NN=C1C(C)(C)C (centres unmarked) [Compound 131, 3-tert-Butyl-4-(hydroxyamino)-4-[1-(methoxyimino)ethyl]-4,5-dihydro-1H-pyrazol-5-one] | 
22 | 114 min | 191 min | 103 min | C[C@H](NC(=O)c1ccc(C2=NN(C)C(=O)C2(C)NO)cc1)C(=O)O (some centres unmarked) [Compound 94] | 
23 | 31 min | 56 min | 32 min | CC(C)S(=N)(=O)c1ccc(C2=NN(C)C(=O)C2(C)NO)cc1 (centres unmarked) [Compound 120, 4-(Hydroxyamino)-3-{4-[imino(oxo)propan-2-yl-λ^6-sulfanyl]phenyl}-1,4-dimethyl-4,5-dihydro-1H-pyrazol-5-one] | 
24 | 166 min | 270 min | 169 min | CN1N=C(c2ccc(C(N)=O)cc2)C(C)(NO)C1=O (centres unmarked) [Compound 92, 4-[4-(Hydroxyamino)-1,4-dimethyl-5-oxo-4,5-dihydro-1H-pyrazol-3-yl]benzamide] | 
25 | 35 min | 34 min | 31 min | CN1N=C(C(C)(C)C)C(NO)(c2ccc(S(=O)(=O)N(C)C)cc2)C1=O (centres unmarked) [Compound 122, 4-[3-tert-Butyl-4-(hydroxyamino)-1-methyl-5-oxo-4,5-dihydro-1H-pyrazol-4-yl]-N,N-dimethylbenzene-1-sulfonamide] | 
26 | 56 min | 69 min | 46 min | CN1N=C(c2ccc(S(C)(=O)=O)c(N3CCOCC3)c2)C(C)(NO)C1=O (centres unmarked) [Compound 82, 4-(Hydroxyamino)-3-[4-methanesulfonyl-3-(morpholin-4-yl)phenyl]-1,4-dimethyl-4,5-dihydro-1H-pyrazol-5-one] | 
27 | 24 min | 22 min | 5 min | C/C(=N\Oc1ccc(Br)cc1)C1(NO)C(=O)N(C)N=C1C(C)(C)C (centres unmarked) [Compound 118, 4-[1-[(4-Bromophenoxy)imino]ethyl]-3-tert-butyl-4-(hydroxyamino)-1-methyl-4,5-dihydro-1H-pyrazol-5-one] | 
28 | 118 min | 91 min | 12 min | C/C(=N\Oc1ccccc1)C1(NO)C(=O)N(C)N=C1C(C)(C)C (centres unmarked) [Compound 119, 3-tert-Butyl-4-(hydroxyamino)-1-methyl-4-[1-(phenoxyimino)ethyl]-4,5-dihydro-1H-pyrazol-5-one] | 
